Source: BigSolDB 2.1

O=C1NC(=O)C(c2ccccc2)(c2ccccc2)N1
solubility (mole fraction)
Conditions | 293.2 K | 298.2 K | 303.2 K | 308.2 K | 313.2 K
in n-propanol | 0.00263 | 0.00304 | 0.00329 | 0.00358 | 0.00396
in water | 1.29e-06 | 2.11e-06 | 2.42e-06 | 2.64e-06 | 2.94e-06
